In ChEMBL document CHEMBL1133506, “3-(3,5-Dimethoxyphenyl)-1,6-naphthyridine-2,7-diamines and related 2-urea derivatives are potent and selective inhibitors of the FGF receptor-1 tyrosine kinase” (J Med Chem, 2000):

Assays:
[1] = biological target: T1, Fibroblast growth factor receptor 1 (Homo sapiens, UniProt P11362)
Description: Inhibition of the phosphorylation of a random glutamate-tyrosine (4:1) copolymer by isolated Fibroblast growth factor receptor 1.

[2] = biological target: Platelet-derived growth factor receptor beta (Mus musculus, UniProt P05622)
Description: Inhibition of the phosphorylation of a random glutamate-tyrosine (4:1) copolymer by isolated mouse Platelet-derived growth factor protein.

Ovarian cancer cell line = test: Inhibition of human ovarian carcinoma (A90) FGF-R overexpressing cell proliferation
HUVEC [3] = test: (§1) Inhibition of microcapillary growth in HUVEC cells; type: functional, cell-based; conditions: Homo sapiens
C6 = test: Inhibition of PDGF-dependent rat glioma C6 cell proliferation
HUVEC [4] = test: Inhibition of in vitro cell Human umbilical vein endothelial (HUVEC) cell proliferation
HUVEC [5] = test: Inhibition of Matrigel invasion assay in HUVEC cells; type: functional, cell-based; conditions: Homo sapiens
[6] = biological target: T1, Fibroblast growth factor receptor 1; test: Inhibition of bFGF-mediated tyrosine phosphorylation; type: functional
HUVEC [7] = test: as §1; conditions: Homo sapiens
Mus musculus [8] = test: Ratio of treated to control tumor mass on last therapy day in lewis lung murine tumor at 200 mg/kg dose; type: functional
Mus musculus [9] = test: Weight change in mammary 16/c murine tumor at 200 mg/kg peroral dose for days 1-9; type: functional, organism-based; parameters: dose 200 mg/kg
M5076 [10] = test: Ratio of treated to control tumor mass on last therapy day in M5076 sarcoma murine tumor at 200 mg/kg; type: functional, Mus musculus
Mus musculus [11] = test: Difference in days for treated (T) and control (C) tumors to reach 750 mg in mammary 16/c murine tumor at 200 mg/kg; type: functional
Mus musculus [12] = test: Difference in days for the treated (T) and control (C) tumors to reach 750 mg in lewis lung murine tumor at 200 mg/kg; type: functional
Mus musculus [13] = test: Ratio of treated to control tumor mass on last therapy day in mammary 16/c murine tumor at 200 mg/kg dose; type: functional
[14] = tested on: Lewis lung carcinoma cell line; test: Weight change in lewis lung murine tumor at 200 mg/kg peroral dose for days 4-12; type: functional, Mus musculus; conditions: route oral
Mus musculus [15] = test: Weight change in mammary 16/c murine tumor at 80 mg/kg peroral dose for schedule q12hx2, days 1-9; type: functional; conditions: route oral
M5076 [16] = test: Difference in days for treated (T) and control (C) tumors to reach 750 mg in murine M5076 sarcoma tumor at 200 mg/kg; type: functional, Mus musculus
M5076 [17] = test: Weight change in murine M5076 sarcoma tumor at 200 mg/kg peroral dose days 8-16; type: functional, organism-based; parameters: dose 200 mg/kg; conditions: Mus musculus
Mus musculus [18] = test: Difference in days for treated (T) and control (C) tumors to reach 750 mg in mammary 16/c murine tumor at 80 mg/kg; type: functional
[19] = biological target: Proto-oncogene tyrosine-protein kinase Src (Gallus gallus) (UniProt P00523); test: Inhibition of the phosphorylation of a random glutamate-tyrosine (4:1) copolymer by isolated avian c-Src protein.

T1 sequence (P11362 whole entry): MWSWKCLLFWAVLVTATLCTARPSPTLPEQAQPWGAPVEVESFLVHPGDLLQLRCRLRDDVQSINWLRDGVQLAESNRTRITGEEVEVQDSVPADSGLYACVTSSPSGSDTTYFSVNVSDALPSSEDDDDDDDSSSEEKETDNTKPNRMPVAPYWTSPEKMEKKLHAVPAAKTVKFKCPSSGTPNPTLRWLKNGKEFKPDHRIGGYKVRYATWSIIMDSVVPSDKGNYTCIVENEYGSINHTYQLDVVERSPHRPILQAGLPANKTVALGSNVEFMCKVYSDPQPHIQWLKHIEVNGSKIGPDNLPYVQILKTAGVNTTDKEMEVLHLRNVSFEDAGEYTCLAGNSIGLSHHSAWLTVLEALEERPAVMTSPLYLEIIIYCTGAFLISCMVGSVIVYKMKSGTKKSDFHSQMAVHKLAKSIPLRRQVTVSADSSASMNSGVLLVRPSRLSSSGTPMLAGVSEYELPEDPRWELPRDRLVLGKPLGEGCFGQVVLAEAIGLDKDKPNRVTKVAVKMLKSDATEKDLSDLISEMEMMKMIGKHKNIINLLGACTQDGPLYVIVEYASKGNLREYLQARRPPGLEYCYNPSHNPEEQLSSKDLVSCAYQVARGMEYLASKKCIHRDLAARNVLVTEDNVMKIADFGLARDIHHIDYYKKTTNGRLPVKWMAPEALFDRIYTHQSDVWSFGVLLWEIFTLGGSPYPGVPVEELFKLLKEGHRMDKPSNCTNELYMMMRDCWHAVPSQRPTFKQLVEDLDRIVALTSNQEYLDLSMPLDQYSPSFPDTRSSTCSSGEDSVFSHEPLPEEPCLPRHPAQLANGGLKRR
Platelet-derived growth factor receptor beta, sequence (P05622 whole entry): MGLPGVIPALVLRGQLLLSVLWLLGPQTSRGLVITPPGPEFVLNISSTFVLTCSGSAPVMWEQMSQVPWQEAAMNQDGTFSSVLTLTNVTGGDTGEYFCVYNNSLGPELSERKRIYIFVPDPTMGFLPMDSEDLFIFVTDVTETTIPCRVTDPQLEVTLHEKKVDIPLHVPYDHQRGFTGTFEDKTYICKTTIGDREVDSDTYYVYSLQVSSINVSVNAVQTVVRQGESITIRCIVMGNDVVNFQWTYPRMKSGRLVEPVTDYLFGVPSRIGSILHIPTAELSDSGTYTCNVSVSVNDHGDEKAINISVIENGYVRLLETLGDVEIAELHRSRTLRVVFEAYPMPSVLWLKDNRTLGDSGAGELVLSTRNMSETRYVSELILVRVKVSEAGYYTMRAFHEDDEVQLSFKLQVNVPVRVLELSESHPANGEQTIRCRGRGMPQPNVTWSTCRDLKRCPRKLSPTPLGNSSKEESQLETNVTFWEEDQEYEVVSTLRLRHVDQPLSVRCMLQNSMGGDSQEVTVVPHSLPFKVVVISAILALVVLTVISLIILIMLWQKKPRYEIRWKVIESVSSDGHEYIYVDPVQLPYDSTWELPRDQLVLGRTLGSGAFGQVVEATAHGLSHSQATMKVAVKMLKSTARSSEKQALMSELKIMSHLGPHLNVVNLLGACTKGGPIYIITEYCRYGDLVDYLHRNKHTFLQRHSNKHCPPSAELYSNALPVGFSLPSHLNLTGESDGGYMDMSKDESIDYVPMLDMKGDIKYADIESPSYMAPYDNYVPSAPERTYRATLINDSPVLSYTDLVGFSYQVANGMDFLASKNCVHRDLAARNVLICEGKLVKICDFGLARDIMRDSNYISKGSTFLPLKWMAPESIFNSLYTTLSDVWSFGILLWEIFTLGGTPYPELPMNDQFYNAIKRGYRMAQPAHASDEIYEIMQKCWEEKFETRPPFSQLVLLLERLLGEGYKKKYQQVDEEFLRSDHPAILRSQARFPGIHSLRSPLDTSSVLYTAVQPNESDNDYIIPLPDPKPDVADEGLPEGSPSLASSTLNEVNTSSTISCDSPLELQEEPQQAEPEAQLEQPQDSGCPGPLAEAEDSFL

## CCNC(=O)Nc1nc2cc(N)ncc2cc1-c1c(Cl)cccc1Cl
[1]
  IC50: 150 nM
[2]
  IC50: 11000 nM

## COc1cc(OC)cc(-c2cc3cnc(NC(=O)NC(C)(C)C)cc3nc2NC(=O)NC(C)(C)C)c1
Ovarian cancer cell line
  IC50: 11000 nM
HUVEC [3]
  IC50: 10 nM
C6
  IC50: 13000 nM
HUVEC [4]
  IC50: 17 nM
[1]
  IC50: 160 nM
[2]
  IC50: > 50000 nM

## COc1cc(OC)cc(-c2cc3cnc(N)cc3nc2NC(=O)NC(C)(C)C)c1
HUVEC [5]
  IC50: > 10000 nM
Ovarian cancer cell line
  IC50: 1200 nM
HUVEC [3]
  IC50: 100 nM
C6
  IC50: 8500 nM
HUVEC [4]
  IC50: 5.5 nM
[1]
  IC50: 42 nM
[2]
  IC50: 38000 nM

## Cc1c[nH]c(/C=C2\C(=O)Nc3ccccc32)c1CCC(=O)O
[6]
  IC50: 20000 nM

## CCNC(=O)Nc1nc2nc(N)ncc2cc1-c1c(Cl)cccc1Cl
[1]
  IC50: 130 nM

## COc1cc(OC)cc(-c2cc3cnc(N)nc3nc2NC(=O)NC(C)(C)C)c1
HUVEC [5]
  IC50: 1100 nM
Ovarian cancer cell line
  IC50: 15000 nM
HUVEC [3]
  IC50: 100 nM
C6
  IC50: > 25000 nM
HUVEC [4]
  IC50: 580 nM
[1]
  IC50: 600 nM

## COc1cc(OC)cc(-c2cc3cnc(NCCCN4CCOCC4)cc3nc2NC(=O)NC(C)(C)C)c1
Ovarian cancer cell line
  IC50: 920 nM
C6
  IC50: 3100 nM
HUVEC [7]
  IC50: 1 nM
HUVEC [4]
  IC50: 85 nM
[2]
  IC50: 45000 nM

## COc1cc(OC)cc(-c2cc3cnc(N)cc3nc2N)c1
Ovarian cancer cell line
  IC50: 17000 nM
C6
  IC50: 8900 nM
HUVEC [4]
  IC50: 820 nM
[1]
  IC50: 200 nM
[2]
  IC50: > 50000 nM

## Nc1cc2nc(N)c(-c3c(Cl)cccc3Cl)cc2cn1
[1]
  IC50: 2800 nM
[2]
  IC50: 35000 nM

## CC(C)(C)NC(=O)Nc1nc2cc(N)ncc2cc1-c1ccccc1
[1]
  IC50: 1900 nM
[2]
  IC50: 2600 nM

## Nc1cc2nc(N)c(-c3ccccc3)cc2cn1
[1]
  IC50: 17000 nM
[2]
  IC50: 17000 nM

## COc1cc(OC)cc(-c2cc3cnc(N)nc3nc2N)c1
[1]
  IC50: 230 nM
[2]
  IC50: > 50000 nM

## COc1cc(OC)cc(-c2cc3cnc(NC(=O)C(F)(F)F)cc3nc2N)c1
Ovarian cancer cell line
  IC50: 17000 nM
C6
  IC50: 9000 nM
HUVEC [4]
  IC50: 4900 nM
[1]
  IC50: 61 nM
[2]
  IC50: > 50000 nM

## CNC(=O)Nc1nc2cc(N)ncc2cc1-c1cc(OC)cc(OC)c1
[1]
  IC50: 95 nM
[2]
  IC50: > 50000 nM

## Cn1c(SSc2c(C(=O)Nc3ccccc3)c3ccccc3n2C)c(C(=O)Nc2ccccc2)c2ccccc21
[6]
  IC50: 4500 nM

## COC(=O)C1=C(c2ccccc2)c2ccccc2C1=O
[6]
  IC50: 5100 nM

## CC(C)(C)NC(=O)Nc1nc2nc(N)ncc2cc1-c1c(Cl)cccc1Cl
[1]
  IC50: 130 nM
[2]
  IC50: 1100 nM

## CC(C)(C)NC(=O)Nc1nc2cc(N)ncc2cc1-c1c(Cl)cccc1Cl
[1]
  IC50: 120 nM
[2]
  IC50: 1800 nM

## COc1cc(OC)cc(-c2cc3cnc(NC(C)=O)cc3nc2NC(=O)NC(C)(C)C)c1
Mus musculus [8]
  T/C: 109%
HUVEC [5]
  IC50: 7 nM
Mus musculus [9]
  Weight change: Weight gain
M5076 [10]
  T/C: 78%
Ovarian cancer cell line
  IC50: 12000 nM
HUVEC [3]
  IC50: 0.01 nM
C6
  IC50: 650 nM
Mus musculus [11]
  T-C: 11.3 days
Mus musculus [12]
  T-C: 0 days
Mus musculus [13]
  T/C: 0%
[14]
  Weight change: -0.4 g
Mus musculus [15]
  Weight change: -0.7 g
M5076 [16]
  T-C: 1 days
HUVEC [4]
  IC50: 4 nM
M5076 [17]
  Weight change: Weight gain
[1]
  IC50: 25 nM
Mus musculus [18]
  T-C: 10.8 days
[2]
  IC50: 4700 nM

## COc1cc(OC)cc(-c2cc3cnc(N)cc3nc2NC(=O)Nc2ccccc2)c1
[1]
  IC50: 510 nM
[2]
  IC50: > 50000 nM

## CCNC(=O)Nc1nc2cc(N)ncc2cc1-c1cc(OC)cc(OC)c1
Ovarian cancer cell line
  IC50: 9300 nM
C6
  IC50: 8000 nM
HUVEC [4]
  IC50: 170 nM
[1]
  IC50: 29 nM
[2]
  IC50: > 50000 nM

## Nc1ncc2cc(-c3c(Cl)cccc3Cl)c(N)nc2n1
[19]
  IC50: 210 nM

## CCNC(=O)Nc1nc2cc(N)ncc2cc1-c1ccccc1
[1]
  IC50: 1300 nM
[2]
  IC50: 7700 nM
